Data published in US20170121683A1, “ARYL HYDROCARBON RECEPTOR DISRUPTION AND ENHANCEMENT” (priority 2015, published 2017).

Tests used:
H9 hESCs = assay: NK cell differentiation from hESCs, flow cytometry (Example 1); format: cell-based, human; settings: 1 μM SR-1 or 10 nM TCDD in NK cell differentiation conditions, n=2
Protocol: H9 hESCs were differentiated as spin EB exposed to Stage I mesodermal induction media for 11 days and transferred to NK-cell differentiation media with either DMSO, 1 μM SR-1, or 10 nM TCDD treatment for an additional 14 and 21 days. At the indicated time points, non-adherent cells were harvested and analyzed for NK-cell immunophenotype (CD56^+CD45^+) by flow cytometry. Representative flow cytometry plots are shown from two biologically independent experiments.
H9 hESCs were differentiated into NK cells as previously described (Ni et al. Embryonic Stem Cell Immunobiol. Methods Protoc. Methods Mol. Biol. 1029, 33-41 (2013)). In brief, H9 hESCs were aggregated as spin-EBs and differentiated in Stage I mesodermal induction media for 11 days, with one-half media change with fresh cytokines on Day 6. […]
Harvested cells were incubated with PE-Cy7 CD34 (BD Biosciences, San Jose, Calif.) in conjunction with APC CD31, APC CD41a, APC CD43, or APC CD45 for 30 minutes at 4° C. in FACS buffer (DPBS containing 2% fetal bovine serum and 0.1% sodium azide). […] Cells were analyzed using an LSRII flow cytometer (BD Biosciences) and data were analyzed using FlowJo software (TreeStart, Ashland, Oreg.).

[1] = test system: hESC-derived hematopoietic cells; assay: qRT-PCR of lymphoid-specific gene expression; format: cell-based, human; parameters: expression of TBX21/TBET, fold vs DMSO-treated control / expression of EOMES, fold vs DMSO-treated control: concentration or dose not given beside the values; settings: Day 11+28
Protocol: FIG. 13A. Schema of hESC differentiation into lymphoid cells as spin-embryoid bodies (spin-EBs). hESCs are made into spin-EBs at Day 0 and cultured in Stage 1 conditions with defined cytokines to promote mesoderm development for 11 days. At Day 11, spin-EBs are transferred onto OP9-DL1 in the presence of NK cell differentiation media (NKDM) to promote lymphoid differentiation. Cells are treated beginning at Day 11+0 with either 1 μM SR-1, 10 nM TCDD, or DMSO vehicle control with media exchanges and/or harvesting performed every week for up to 4 weeks. FIG. 13B. At Day 11, differentiated spin-EBs (photo) are phenotyped for CD34^+CD45^+ expression and transferred to OP9-DL1 stroma in NKDM. Non-adherent hematopoietic cells cultured either in the presence of DMSO, SR-1, or TCDD were assessed for developing NK cell immunophenotype based on CD56^+CD45^+ expression at Days 11+21, and 11+28; representative flow cytometry plots from one differentiation are shown. FIG. 13C. Quantification of fold-change in total percentage of CD56^+CD45^+ cells at both Day 11+21 and Day 11+28 when treated with DMSO, SR-1, or TCDD. SR-1 and TCDD treatments for each differentiation are normalized to DMSO controls. n=3 independent differentiation experiments, error bars represent SEM, *p<0.05 as assessed with two-way ANOVA+Tukey-Kramer multiple comparisons post-hoc test. FIG. 13D. Non-adherent hematopoietic progenitor cells derived from hESCs differentiated in the presence of SR-1, TCDD, or DMSO controls were harvested at Day 11+28 and probed for gene expression by quantitative real-time PCR (qRT-PCR). For each gene, Ct values were normalized to GAPDH at each time point and data is presented as relative fold-change to DMSO treated controls. n=3, error bars represent SEM, *p<0.05, #p<0.01 using student's t-test. FIG. 13E. Non-adherent hematopoietic progenitor cells derived from hESCs differentiated in the presence of SR-1, TCDD, or DMSO controls were harvested at Day 11+28 and assessed for CD107a expression following 4 hours of co-culture with K562 target cells at 2:1 effector:target ratio. SSC: side scatter. Representative flow cytometry plots are shown from one experiment. FIG. 13F. Quantification of percentage of CD107a^+ cells when treated with DMSO, SR-1, or TCDD at Day 11+28, n=2-3 replicates.
Spin-EBs were generated as described above (see also Knorr et al. Stem Cells Dev. 2013; 22(13):1861-9; Ni et al. Embryonic Stem Cell Immunobiol. Methods Protoc. Methods Mol. Biol. 2013; 1029:33-41; Hermanson et al. Stem Cells. 2016; 34(1):93-101). Following 11 days of mesoderm conditioning (Day 11), spin-EBs were collected and analyzed by flow cytometry to assess hematopoietic progenitor cell potential (see flow cytometry methods for antibodies used) (FIG. 4A). Spin-EBs yielding >30% CD34^+CD45^+ cells were transferred onto 24-well plates coated with irradiated OP9-DL1 cells (as described in Martin et al. Blood. 2008; 112(7):2730-7; La Motte-Mohs et al. Blood. 2005; 105(4):1431-9) (now defined as Day 11+0). EBs and OP9-DL1 were co-cultured in NK differentiation media (NKDM) supplemented initially with SCF, IL-15, IL-7, Flt3-L (all R&D Systems), and IL-3 (PeproTech) for one week; DMSO, SR-1, or TCDD were also added at Day 11+0. Every week, a one-half media change with NKDM supplemented with SCF, IL-15, IL-7, Flt3-L, and drugs was performed. hESCs were differentiated for four additional weeks (Day 11+28) and non-adherent cells were harvested for analysis. […]

SMILES	CD56+CD45+ NK cells (H9 hESCs)	expression of EOMES, fold vs DMSO-treated control [1]	expression of ID2, fold vs DMSO-treated control [1]	expression of TBX21/TBET, fold vs DMSO-treated control [1]
CC(C)n1cnc2c(NCCc3ccc(O)cc3)nc(-c3csc4ccccc34)nc21 [SR-1, StemReginin-1]	26.4%	5.12±0.52 fold	2.49±0.003 fold	3.44±0.55 fold
Clc1cc2c(cc1Cl)Oc1cc(Cl)c(Cl)cc1O2 [TCDD, 2,3,7,8-tetrachlorodibenzo-p-dioxin]	6.7%	1.84±0.11 fold	–	1.56±0.07 fold
